The test system of assay [1] is HIV-1 isolates, WT. The experiment in a line: In vitro drug sensitivity of HIV-1 laboratory isolates, WT. The class given is cell-based. The conditions noted are these: Human immunodeficiency virus 1. As to the method: (§1) In Vitro Drug Sensitivity of HIV-1 Laboratory Isolates to PIs
(§2) The sensitivities of HIV-1 isolates against compounds of the invention were determined as previously described with minor modifications (Shiraska et al., Proc. Natl. Acad. Sci. USA, 92, 2398-2402 (1995)).

The test system of assay [2] is HIV-1 isolates, Mutant 8. The experiment in a line: In vitro drug sensitivity of HIV-1 laboratory isolates, Mutant 8. The class given is cell-based. The conditions noted are these: Human immunodeficiency virus 1, read-out: IC50 Mutant 8. As to the method:
as §1, §2

In assay [3] the target is HIV-1 protease Mutant 8 (Human immunodeficiency virus type 1, UniProt P04585). The assay is described as follows: Ki against HIV-1 protease Mutant 8. In kind it is biochemical.
Assay [4] addresses HIV-1 protease Mutant 9 (Human immunodeficiency virus type 1, UniProt P04585). The experiment in a line: Ki against HIV-1 protease Mutant 9. In kind it is biochemical.
The test system of assay [5] is HIV-1 isolates, Mutant 9. The assay is described as follows: In vitro drug sensitivity of HIV-1 laboratory isolates, Mutant 9. In kind it is cell-based. The conditions noted are these: Human immunodeficiency virus 1, read-out: IC50 Mutant 9. The procedure: as §1, §2
Assay [6] concerns the target T1, wild type HIV-1 protease (Human immunodeficiency virus type 1 group M subtype B, UniProt P04585).
T1 construct: over 45 of the 99 amino acids of the HIV protease monomer
The assay is described as follows: Ki against wild type (WT) HIV-1 protease. In kind it is biochemical.

Consider 15 compounds from patent US20100056596A1, “RESISTANCE-REPELLENT RETROVIRAL PROTEASE INHIBITORS” (Sequoia Pharmaceuticals, priority 2004, published 2010).

Broadly, the IC50 is the concentration at which inhibition is half-maximal. Broadly, the Ki is the dissociation constant of the complex between target and ligand, obtained from inhibition or displacement. The low end stands for a stronger hold on the target, the high end for a looser hold on the target.

In the case of `CC(C)CN(CC(O)C(Cc1ccccc1)NC(=O)OC1COC2OCCC12)S(=O)(=O)c1ccc2onc(CS(C)(=O)=O)c2c1` (stereo not drawn) [Compound 243], the results for the IC50 in assay [1] (HIV-1 isolate WT), in assay [2] and in assay [5] were 8.2 nM, 24 nM and 120 nM, respectively. Also, the Ki in assay [3] (HIV-1 protease Mutant 8) is under 0.3 nM; in assay [4] (HIV-1 protease Mutant 9), 0.96 nM; in assay [6] (wild type HIV-1 protease) it was under 0.1 nM.

As to `COCc1noc2ccc(S(=O)(=O)N(CC(C)C)CC(O)C(Cc3ccccc3)NC(=O)OC3COC4OCCC34)cc12` (stereo not drawn) [Compound 244], the IC50 in assay [1] (HIV-1 isolate WT) was determined as 4.1 nM; in assay [2], 40 nM; in assay [5], 305 nM. For the same compound, the Ki is under 0.3 nM in assay [3] (HIV-1 protease Mutant 8), 0.49 nM in assay [4] (HIV-1 protease Mutant 9) and under 0.1 nM in assay [6] (wild type HIV-1 protease).

For `CC(C)CN(CC(O)C(Cc1ccccc1)NC(=O)OC1COC2OCCC12)S(=O)(=O)c1ccc2onc(CNC(=O)C(F)(F)C(F)(F)F)c2c1` (stereo not drawn) [Compound 245], the IC50 in assay [1] (HIV-1 isolate WT) was determined as 8.4 nM; in assay [2] it was 30 nM; in assay [5], 190 nM. Further, the Ki in assay [3] (HIV-1 protease Mutant 8) was under 0.3 nM; in assay [4] (HIV-1 protease Mutant 9), 0.63 nM; in assay [6] (wild type HIV-1 protease) it was under 0.1 nM.

Turning to `CC(C)CN(CC(O)C(Cc1ccccc1)NC(=O)OC1COC2OCCC12)S(=O)(=O)c1ccc2onc(COCC(F)(F)F)c2c1` (stereo not drawn) [Compound 246], the IC50 in assay [1] (HIV-1 isolate WT) amounted to 2.7 nM; in assay [2], 6.8 nM; in assay [5], 105 nM. Further, the Ki in assay [3] (HIV-1 protease Mutant 8) was under 0.3 nM; in assay [4] (HIV-1 protease Mutant 9), 1.1 nM; in assay [6] (wild type HIV-1 protease) it was under 0.1 nM.

Regarding `CC(=O)N(Cc1noc2ccc(S(=O)(=O)N(CC(C)C)CC(O)C(Cc3ccccc3)NC(=O)OC3COC4OCCC34)cc12)CC(F)(F)F` (stereo not drawn) [Compound 247], the IC50 in assay [1] (HIV-1 isolate WT) is 5.4 nM; in assay [2], 29 nM; in assay [5], over 400 nM. The Ki in assay [3] (HIV-1 protease Mutant 8) is under 0.3 nM; in assay [4] (HIV-1 protease Mutant 9), 1.1 nM; in assay [6] (wild type HIV-1 protease), under 0.1 nM.

Consider `CC(C)CN(CC(O)C(Cc1ccccc1)NC(=O)OC1COC2OCCC12)S(=O)(=O)c1ccc2onc(CNCc3ccc4occc4c3)c2c1` (stereo not drawn) [Compound 248], for which the values for the concentration for half-maximal inhibition (IC50) in assay [1] (HIV-1 isolate WT), in assay [2] and in assay [5] were 7.9 nM, 24 nM and 54 nM, respectively. In addition, the values for the Ki in assay [3] (HIV-1 protease Mutant 8), in assay [4] (HIV-1 protease Mutant 9) and in assay [6] (wild type HIV-1 protease) were under 0.3 nM, 0.33 nM and under 0.1 nM, respectively.

For the compound `Cc1n[nH]c2ccc(S(=O)(=O)N(CC(C)C)CC(O)C(Cc3ccccc3)NC(=O)OC3COC4OCCC34)cc12` (stereo not drawn) [Compound 301, {1-Benzyl-2-hydroxy-3-[isobutyl-(3-methyl-1H-indazole-5-sulfonyl)-amino]-propyl}-carbamic acid hexahydro-furo[2,3-b]furan-3-yl ester], the values for the IC50 in assay [1], in assay [2] and in assay [5] were 8 nM, 70 nM and 80 nM, respectively. In addition, the Ki was under 0.3 nM in assay [3] (Mutant 8), 0.23 nM in assay [4] (Mutant 9) and under 0.1 nM in assay [6] (WT).

Take `CCCC(C)Nc1n[nH]c2ccc(S(=O)(=O)N(CC(C)C)CC(O)C(Cc3ccccc3)NC(=O)OC3COC4OCCC34)cc12` (stereo not drawn) [Compound 303]: the IC50 in assay [1] worked out at 10 nM; in assay [2] it was 18 nM; in assay [5] it was 150 nM. The results for the Ki in assay [3] (Mutant 8), in assay [4] (Mutant 9) and in assay [6] (WT) were under 0.3 nM, 0.73 nM and under 0.1 nM, respectively.

On to `CC(C)CN(CC(O)C(Cc1ccccc1)NC(=O)OC1COC2OCCC12)S(=O)(=O)c1ccc2[nH]nc(NC3CCCCC3)c2c1` (stereo not drawn) [Compound 304], for which the IC50 in assay [1] came out at 6.1 nM; in assay [2], 12 nM; in assay [5], 100 nM. Moreover, the Ki in assay [3] (Mutant 8) is under 0.3 nM; in assay [4] (Mutant 9), 0.93 nM; in assay [6] (WT), under 0.1 nM.

As for `CCCNc1n[nH]c2ccc(S(=O)(=O)N(CC(C)C)CC(O)C(Cc3ccccc3)NC(=O)OC3COC4OCCC34)cc12` (stereo not drawn) [Compound 305], the IC50 in assay [1] is 16 nM; in assay [2], 30 nM; in assay [5], 180 nM. The Ki is under 0.3 nM in assay [3] (Mutant 8), 0.66 nM in assay [4] (Mutant 9) and under 0.1 nM in assay [6] (WT).

On to `CC(C)CN(CC(O)C(Cc1ccccc1)NC(=O)OC1COC2OCCC12)S(=O)(=O)c1ccc2[nH]nc(NCc3ccccc3)c2c1` (stereo not drawn) [Compound 306], for which the figures for the IC50 in assay [1], in assay [2] and in assay [5] were 5.5 nM, 35 nM and 95 nM, respectively. Moreover, the Ki is under 0.3 nM in assay [3] (Mutant 8), 1.1 nM in assay [4] (Mutant 9) and 0.1 nM in assay [6] (WT).

As for `CCC(CC)Nc1n[nH]c2ccc(S(=O)(=O)N(CC(C)C)CC(O)C(Cc3ccccc3)NC(=O)OC3COC4OCCC34)cc12` (stereo not drawn) [Compound 307], the figures for the IC50 in assay [1], in assay [2] and in assay [5] were 7.5 nM, 24 nM and 110 nM, respectively. For the same compound, the results for the Ki in assay [3] (Mutant 8), in assay [4] (Mutant 9) and in assay [6] (WT) were under 0.3 nM, 0.55 nM and under 0.1 nM, respectively.

Regarding `CCCCNc1n[nH]c2ccc(S(=O)(=O)N(CC(C)C)CC(O)C(Cc3ccccc3)NC(=O)OC3COC4OCCC34)cc12` (stereo not drawn) [Compound 308], the figures for the IC50 in assay [1], in assay [2] and in assay [5] were 8 nM, 30 nM and 310 nM, respectively. For the same compound, the Ki is under 0.3 nM in assay [3] (Mutant 8), 1.8 nM in assay [4] (Mutant 9) and under 0.1 nM in assay [6] (WT).

As for `CC(C)CN(CC(O)C(Cc1ccccc1)NC(=O)OC1COC2OCCC12)S(=O)(=O)c1ccc2[nH]nc(NCC(C)(C)C)c2c1` (stereo not drawn) [Compound 309], the IC50 in assay [1] came to 4 nM; in assay [2], 25 nM; in assay [5] it was 250 nM. The Ki is under 0.3 nM in assay [3] (Mutant 8), 3.5 nM in assay [4] (Mutant 9) and 0.13 nM in assay [6] (WT).

`CCOC(=O)CNc1n[nH]c2ccc(S(=O)(=O)N(CC(C)C)CC(O)C(Cc3ccccc3)NC(=O)OC3COC4OCCC34)cc12` (stereo not drawn) [Compound 310]: the IC50 stood at 50 nM in assay [1], 70 nM in assay [2] and 60 nM in assay [5]. For the same compound, the figures for the Ki in assay [3] (Mutant 8), in assay [4] (Mutant 9) and in assay [6] (WT) were under 0.3 nM, 0.19 nM and under 0.1 nM, respectively.
